Data as given in PMC10997755, “Discovery of a small-molecule inhibitor that traps Polθ on DNA and synergizes with PARP inhibitors” (Nature Communications, 2024).
Values joined by “and” are separate entries in the source; they are usually repeats but may differ in a detail not shown here. Equal values may be shown once.

How the values were obtained:
[1] = target: T1, PolθΔL (Homo sapiens, UniProt O75417, C1895G/DEL1861-1870/DEL1873-1894/DEL1918-1929/DEL2146-2157/DEL2161-2173/DEL2261-2287/DEL2291-2305/DEL2513-2514/DEL2518-2524/F2289G/F2526G/L1930G/L2158G/L2516G/M2525G/P1932S/P1933G/R2175G/R2306G/S1934G/V1931G); test: PolθΔL primer extension; type: biochemical
T1 construct: The gene encoding Polθ-pol (residues 1819–2590) was cloned into a pSUMOstar vector; 6xHis (N, cleaved yes); SUMO (N); made in house; host or cells: E. coli BL21(DE3)
T1 sequence (O75417 with tags, fused parts or gaps with the stated changes): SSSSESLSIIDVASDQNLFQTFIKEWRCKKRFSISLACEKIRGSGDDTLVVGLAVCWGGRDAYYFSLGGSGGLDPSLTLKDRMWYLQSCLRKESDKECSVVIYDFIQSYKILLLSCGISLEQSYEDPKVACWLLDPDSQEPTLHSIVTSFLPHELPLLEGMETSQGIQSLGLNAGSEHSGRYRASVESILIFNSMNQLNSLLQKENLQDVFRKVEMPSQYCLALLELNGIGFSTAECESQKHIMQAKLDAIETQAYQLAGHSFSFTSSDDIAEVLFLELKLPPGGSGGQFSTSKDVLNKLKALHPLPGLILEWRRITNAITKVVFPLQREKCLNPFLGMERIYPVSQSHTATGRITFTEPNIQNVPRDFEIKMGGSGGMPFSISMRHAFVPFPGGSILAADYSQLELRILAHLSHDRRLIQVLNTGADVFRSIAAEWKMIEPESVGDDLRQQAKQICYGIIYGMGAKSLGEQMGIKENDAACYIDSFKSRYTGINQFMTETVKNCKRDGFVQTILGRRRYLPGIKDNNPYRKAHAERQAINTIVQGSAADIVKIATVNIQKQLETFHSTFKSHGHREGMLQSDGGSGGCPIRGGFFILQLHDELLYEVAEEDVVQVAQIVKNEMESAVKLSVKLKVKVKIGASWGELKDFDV

[2] = test system: BRCA2-WT cells; test: Clonogenic assay (number of colonies counted); type: cell-based; conditions: three replicates

CN(C(=O)Oc1ccc(C(F)(F)F)cc1C(F)(F)F)c1ccc(F)cc1 [MC160385]
inhibition of PolθΔL primer extension [1]: inhibits | number of olonies counted ([2]; MC160385 2.5 μM): 84 and 87 and 85 | number of olonies counted ([2]; MC160385 5 μM): 82 and 86 and 83 | number of olonies counted ([2]; MC160385 10 μM): 80 and 84 and 82 | number of olonies counted ([2]; MC160385 20 μM): 79 and 84 and 80
